Molecular target: T1, human M2 receptor (Homo sapiens, UniProt P08172)
T1 sequence (P08172 1-466): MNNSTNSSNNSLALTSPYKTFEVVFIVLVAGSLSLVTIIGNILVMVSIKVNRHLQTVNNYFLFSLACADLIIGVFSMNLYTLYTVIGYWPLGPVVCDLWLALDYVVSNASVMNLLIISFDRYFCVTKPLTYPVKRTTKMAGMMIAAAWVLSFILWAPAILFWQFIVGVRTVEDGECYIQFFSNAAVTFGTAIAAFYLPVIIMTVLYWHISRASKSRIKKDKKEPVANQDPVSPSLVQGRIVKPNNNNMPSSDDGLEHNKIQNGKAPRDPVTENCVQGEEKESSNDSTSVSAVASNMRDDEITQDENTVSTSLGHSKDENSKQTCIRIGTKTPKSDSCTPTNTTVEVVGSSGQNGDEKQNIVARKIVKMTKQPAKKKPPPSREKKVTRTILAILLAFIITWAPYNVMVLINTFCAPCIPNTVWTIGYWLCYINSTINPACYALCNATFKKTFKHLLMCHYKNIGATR
Assay: Functional M2-GIRK1/4 activation test: allosteric potency (EC50) and efficiency
Details: for EC50: Receptor activity EC50, CHO-DUKX-M2-GIRK cells, acetylcholine at EC20, in some cases mean of two or more determinations; for Efficiency: boosting of the acetylcholine effect at EC20 acetylcholine concentration; for Efficiency / Emax: CHO-DUKX-M2-GIRK cells; for Emax: read-out: Efficiency, boosting of the acetylcholine effect at EC20 acetylcholine concentration

Row | EC50 [nM] | Efficiency [%] | Emax [%] | SMILES
1 | 59 | 98.00 | – | CC1CC(=O)N(c2ccc3c(=O)c(C(=O)N[C@H](C4CC4)C(F)(F)F)cn(-c4ncc(F)cc4F)c3n2)C1 (single isomer, unassigned) [Example 29]
2 | 120 | 100.00 | – | CC(NC(=O)c1cn(-c2ncc(F)cc2F)c2nc(N3CCNC3=O)ccc2c1=O)C(F)(F)C(F)(F)F (single isomer, unassigned) [Example 163, 1-(3,5-Difluoropyridin-2-yl)-4-oxo-7-(2-oxoimidazolidin-1-yl)-N-[3,3,4,4,4-pentafluorobutan-2-yl]-1,4-dihydro-1,8-naphthyridine-3-carboxamide]
3 | 280 | – | 99 | CC(C)(CC(F)(F)F)NC(=O)c1cn(-c2ncc(F)cc2F)c2nc(N3C[C@@H](O)[C@H](O)C3)ccc2c1=O [Example 91, 1-(3,5-Difluoropyridin-2-yl)-7-[(3R,4R)-3,4-dihydroxypyrrolidin-1-yl]-4-oxo-N-(4,4,4-trifluoro-2-methylbutan-2-yl)-1,4-dihydro-1,8-naphthyridine-3-carboxamide]
4 | 1600 | – | 98 | CC1(NC(=O)c2cn(-c3ncc(F)cc3F)c3nc(N4C[C@@H](O)CC4=O)ccc3c2=O)CC(F)(F)C1 [Example 172, N-(3,3-Difluoro-1-methylcyclobutyl)-1-(3,5-difluoropyridin-2-yl)-7-[(4S)-4-hydroxy-2-oxopyrrolidin-1-yl]-4-oxo-1,4-dihydro-1,8-naphthyridine-3-carboxamide]
5 | 55 | – | 100 | O=C(NC(c1ccc(F)cc1)C(F)(F)F)c1cn(-c2ncc(F)cc2F)c2nc(N3C[C@@H](O)CC3=O)ccc2c1=O (single isomer, unassigned) [Example 12]
6 | 130 | – | 97 | CC(C)(C)[C@H](NC(=O)c1cn(-c2ncc(F)cc2F)c2nc(N3CCN(CCO)C3=O)ccc2c1=O)C(F)(F)F [Example 124, 1-(3,5-Difluoropyridin-2-yl)-7-[3-(2-hydroxyethyl)-2-oxoimidazolidin-1-yl]-4-oxo-N-[(2S)-1,1,1-trifluoro-3,3-dimethylbutan-2-yl]-1,4-dihydro-1,8-naphthyridine-3-carboxamide]
7 | 44 | 91.50 | – | CC(NC(=O)c1cn(-c2ncc(F)cc2F)c2nc(N3C[C@@H](O)CC3=O)ccc2c1=O)C(F)(F)C(F)(F)F (single isomer, unassigned) [Example 78]
8 | 14 | – | 100 | CCC(NC(=O)c1cn(-c2ncc(F)cc2F)c2nc(N3CCNC3=O)ccc2c1=O)C(F)(F)C(F)(F)F (racemic) [Example 164, 1-(3,5-Difluoropyridin-2-yl)-4-oxo-7-(2-oxoimidazolidin-1-yl)-N-[1,1,1,2,2-pentafluoropentan-3-yl]-1,4-dihydro-1,8-naphthyridine-3-carboxamide]
9 | 38 | – | 100 | CC(C)(C)[C@H](NC(=O)c1cn(-c2ncc(F)cc2F)c2nc(N3C[C@@H](O)[C@H](O)C3)ccc2c1=O)C(F)(F)F [Example 99, 1-(3,5-Difluoropyridin-2-yl)-7-[(3R,4R)-3,4-dihydroxypyrrolidin-1-yl]-4-oxo-N-[(2S)-1,1,1-trifluoro-3,3-dimethylbutan-2-yl]-1,4-dihydro-1,8-naphthyridine-3-carboxamide]
10 | 3100 | – | 90.5 | CC1(NC(=O)c2cn(-c3ncc(F)cc3F)c3nc(N4CCNC4=O)ccc3c2=O)CC(F)(F)C1 [Example 171, N-(3,3-Difluoro-1-methylcyclobutyl)-1-(3,5-difluoropyridin-2-yl)-4-oxo-7-(2-oxoimidazolidin-1-yl)-1,4-dihydro-1,8-naphthyridine-3-carboxamide]
11 | 435 | – | 98.5 | CC(C)(CC(F)(F)F)NC(=O)c1cn(-c2ncc(F)cc2F)c2nc(N3CCNC3=O)ccc2c1=O [Example 145, 1-(3,5-Difluoropyridin-2-yl)-4-oxo-7-(2-oxoimidazolidin-1-yl)-N-(4,4,4-trifluoro-2-methylbutan-2-yl)-1,4-dihydro-1,8-naphthyridine-3-carboxamide]
12 | 37 | – | 99.5 | O=C(NC(c1ccc(F)cc1)C(F)(F)F)c1cn(-c2ncc(F)cc2F)c2nc(N3C[C@@H](O)CC3=O)ccc2c1=O (mixture of isomers) [Example 11, 1-(3,5-Difluoropyridin-2-yl)-7-[(4S)-4-hydroxy-2-oxopyrrolidin-1-yl]-4-oxo-N-[2,2,2-trifluoro-1-(4-fluorophenyl)ethyl]-1,4-dihydro-1,8-naphthyridine-3-carboxamide]
13 | 70 | – | 100 | CC(NC(=O)c1cn(-c2ncc(F)cc2F)c2nc(N3CCNC3=O)ccc2c1=O)C(F)(F)C(F)(F)F (racemic) [Example 161, 1-(3,5-Difluoropyridin-2-yl)-4-oxo-7-(2-oxoimidazolidin-1-yl)-N-[3,3,4,4,4-pentafluorobutan-2-yl]-1,4-dihydro-1,8-naphthyridine-3-carboxamide]
14 | 790 | – | 92 | CC[C@H](NC(=O)c1cn(-c2ncc(F)cc2F)c2nc(N3CCN(CCO)C3=O)ccc2c1=O)C(F)(F)F [Example 119, 1-(3,5-Difluoropyridin-2-yl)-7-[3-(2-hydroxyethyl)-2-oxoimidazolidin-1-yl]-4-oxo-N-[(2S)-1,1,1-trifluorobutan-2-yl]-1,4-dihydro-1,8-naphthyridine-3-carboxamide]
15 | 36 | – | 100 | CC(C)C[C@@H](NC(=O)c1cn(-c2ncc(F)cc2F)c2nc(N3CCNC3=O)ccc2c1=O)C(F)(F)F [Example 156, 1-(3,5-Difluoropyridin-2-yl)-4-oxo-7-(2-oxoimidazolidin-1-yl)-N-[-(2R)-1,1,1-trifluoro-4-methylpentan-2-yl]-1,4-dihydro-1,8-naphthyridine-3-carboxamide]
16 | 330 | – | 87 | CC[C@@H](NC(=O)c1cn(-c2ncc(F)cc2Cl)c2nc(N3C[C@@H](O)CC3=O)ccc2c1=O)C(F)(F)F [Example 20, 1-(3-Chloro-5-fluoropyridin-2-yl)-7-[(4S)-4-hydroxy-2-oxopyrrolidin-1-yl]-4-oxo-N-[(2R)-1,1,1-trifluorobutan-2-yl]-1,4-dihydro-1,8-naphthyridine-3-carboxamide]
17 | 26 | – | 100 | CC(C)(C)[C@H](NC(=O)c1cn(-c2ncc(F)cc2F)c2nc(N3CCNC3=O)ccc2c1=O)C(F)(F)F [Example 100, 1-(3,5-Difluoropyridin-2-yl)-4-oxo-7-(2-oxoimidazolidin-1-yl)-N-[(2S)-1,1,1-trifluoro-3,3-dimethylbutan-2-yl]-1,4-dihydro-1,8-naphthyridine-3-carboxamide]
18 | 38 | – | 100 | CC(NC(=O)c1cn(-c2ncc(F)cc2F)c2nc(N3CCC(O)(CO)CC3)ccc2c1=O)C(F)(F)C(F)(F)F (single isomer, unassigned) [Example 177, 1-(3,5-Difluoropyridin-2-yl)-7-[4-hydroxy-4-(hydroxymethyl)piperidin-1-yl]-4-oxo-N-(3,3,4,4,4-pentafluorobutan-2-yl)-1,4-dihydro-1,8-naphthyridine-3-carboxamide]
19 | 120 | – | 100 | CC(C)(CC(F)(F)F)NC(=O)c1cn(-c2ncc(F)cc2F)c2nc(N3C[C@@H](O)CC3=O)ccc2c1=O [Example 80, 1-(3,5-Difluoropyridin-2-yl)-7-[(4S)-4-hydroxy-2-oxopyrrolidin-1-yl]-4-oxo-N-(4,4,4-trifluoro-2-methylbutan-2-yl)-1,4-dihydro-1,8-naphthyridine-3-carboxamide]

From patent publication US10519154B2, “7-substituted 1-pyridyl-naphthyridine-3-carboxylic acid amides and use thereof” (Bayer Pharma Aktiengesellschaft, priority 2016, dated 2019)
